Results on one compound are retold here after article PMC8998978, “Toward a Treatment of Cancer: Design and In Vitro/In Vivo Evaluation of Uncharged Pyrazoline Derivatives as a Series of Novel SHP2 Inhibitors” (International Journal of Molecular Sciences, 2022).

Structures are written as SMILES.

In data set [1] the test system is NCM460 cells. The data set is described as follows: Cell viability assay (SRB), normal cells. Type of data set: cell-based. To be noted: Homo sapiens, 72 h. An excerpt:
(§1) Human colon cancer cell line HCT116, hepatoma cell lines HepG2 and BEL-7402, lung adenocarcinoma cell lines NCI-H1975 and 95-D, pancreatic cancer cell line Panc-1, breast cancer cell line MDA-MB-231, NSCLC cell line NCI-H1299, ovarian cancer cell line SK-OV-3, leukemia cell line K562, glioma cell line U87, colon epithelial cell line NCM460 and umbilical vein endothelial cell line HUVEC were purchased from the Institute of Biochemistry and Cell Biology, Chinese Academy of Sciences (Shanghai, China). HCT116 cell line was cultured in McCoy’s 5A medium (Hyclone, Logan, UT, USA). HepG2, 95-D, Panc-1, MDA-MB-231, BEL-7402, SK-OV-3, U87 and NCM460 cell lines were cultured in DMEM-High glucose medium (Hyclone, Logan, UT, USA). NCI-H1975, NCI-H1299 and HUVEC cell lines were cultured in RPMI 1640 medium (Hyclone, Logan, UT, USA). K562 cell line was cultured in IMDM medium (Hyclone, Logan, UT, USA). […]
(§2) The inhibition rate of cell viability was detected by 3-(4,5-dimethyl-2-thiazolyl)-2,5-diphenyl-2-H-tetrazolium bromide (MTT, Solarbio, Beijing, China) or Sulforhodamine B (SRB, Sigma-Aldrich, St. Louis, MO, USA) assay. […] The absorbance at 570 nm was measured in a multimode reader (Berthold Technologies, Germany). […] Finally, Tris–HCl solution was added, and the absorbance at 515 nm was detected in a multimode reader (Berthold Technologies, Germany).

The subject of data set [2] is HUVEC cells. The data set is described as follows: Cell viability assay (SRB), normal cells. It counts as cell-based. To be noted: Homo sapiens, 72 h.
Description: as §1, §2

Data set [3] concerns U87 cells. The experiment in a line: Cell viability assay (SRB). Type of data set: cell-based. To be noted: Homo sapiens, U-87 MG, U87, 72 h. An excerpt: (§3) Human colon cancer cell line HCT116, hepatoma cell lines HepG2 and BEL-7402, lung adenocarcinoma cell lines NCI-H1975 and 95-D, pancreatic cancer cell line Panc-1, breast cancer cell line MDA-MB-231, NSCLC cell line NCI-H1299, ovarian cancer cell line SK-OV-3, leukemia cell line K562, glioma cell line U87, colon epithelial cell line NCM460 and umbilical vein endothelial cell line HUVEC were purchased from the Institute of Biochemistry and Cell Biology, Chinese Academy of Sciences (Shanghai, China). HCT116 cell line was cultured in McCoy’s 5A medium (Hyclone, Logan, UT, USA). HepG2, 95-D, Panc-1, MDA-MB-231, BEL-7402, SK-OV-3, U87 and NCM460 cell lines were cultured in DMEM-High glucose medium (Hyclone, Logan, UT, USA). NCI-H1975, NCI-H1299 and HUVEC cell lines were cultured in RPMI 1640 medium (Hyclone, Logan, UT, USA). K562 cell line was cultured in IMDM medium (Hyclone, Logan, UT, USA). All of them were incubated in the medium with 10% fetal bovine serum (PAN, Adenbach, Bavaria, Germany) and 1% penicillin-streptomycin (Gibco-Invitrogen, Grand Island, NY, USA) under a humidified atmosphere of 5% CO2 at 37 °C.
(§4) The inhibition rate of cell viability was detected by 3-(4,5-dimethyl-2-thiazolyl)-2,5-diphenyl-2-H-tetrazolium bromide (MTT, Solarbio, Beijing, China) or Sulforhodamine B (SRB, Sigma-Aldrich, St. Louis, MO, USA) assay. In MTT assay, the suspension cells were inoculated in 96-well plates at the density of 5000 cells per well, and incubated with 4o at indicated concentrations dissolved in DMSO for 72 h. Each well was incubated with MTT solution (5 mg/mL) at 37 °C for 4 h, DMSO was added and incubated overnight at 37 °C. The absorbance at 570 nm was measured in a multimode reader (Berthold Technologies, Germany). In SRB assay, adherent cells were seeded in 96-well plates (5000 cells per well). After 24 h, the cells were treated with 4o for 72 h, and then fixed with precooling 10% TCA solution at 4 °C for 1 h. After washing and drying, SRB staining was added for 15 min, and then washed and dried by 1% acetic acid. Finally, Tris–HCl solution was added, and the absorbance at 515 nm was detected in a multimode reader (Berthold Technologies, Germany).

In data set [4] the test system is HepG2 cells. The data set is described as follows: Cell viability assay (SRB). It counts as cell-based. To be noted: Homo sapiens, HepG2, 72 h.
Description: as §3, §4

Data set [5] relates to NCI-H1975 cells. The experiment in a line: Cell viability assay (SRB). To be noted: Homo sapiens, NCI-H1975, 72 h. Type of data set: cell-based.
Description: as §3, §4

In data set [6] the test system is MDA-MB-231 cells. The experiment in a line: Cell viability assay (SRB). It counts as cell-based. To be noted: Homo sapiens, MDA-MB-231, 72 h.
Description: as §3, §4

The test system of data set [7] is SK-OV-3 cells. The experiment in a line: Cell viability assay (SRB). To be noted: Homo sapiens, SK-OV-3, 72 h. It counts as cell-based.
Description: as §3, §4

Data set [8] has as its system BEL-7402 cells. The data set is described as follows: Cell viability assay (SRB). Type of data set: cell-based. To be noted: Homo sapiens, BEL-7402, 72 h.
Description: as §3, §4

The test system of data set [9] is NCI-H1299 cells. The data set is described as follows: Cell viability assay (SRB). It counts as cell-based. To be noted: Homo sapiens, NCI-H1299, 72 h.
Description: as §3, §4

Data set [10] deals with 95-D cells. The data set is described as follows: Cell viability assay (SRB). Type of data set: cell-based. To be noted: Homo sapiens, 72 h.
Description: as §3, §4

For data set [11], the system named is Panc-1 cells. The data set is described as follows: Cell viability assay (SRB). It counts as cell-based. To be noted: Homo sapiens, Panc-1, 72 h.
Description: as §3, §4

For data set [12], the system named is human cancer cells. The experiment in a line: Cell viability assay, panel of cancer cells. Type of data set: cell-based. To be noted: 11 cancer cell lines, 72 h, read-out: IC50 values against cancer cells (range over the panel).
Description: as §1, §2

A short description of data set [13]: Subacute toxicity assay. It counts as in vivo. As to the method: In acute toxicity assay, 18 female Kunming mice (Jinan Pengyue Experimental Animal Breeding Co., Ltd., Jinan, China), 18–22 g of weight, were used. The mice were randomly divided into three groups (n = 6), and treated with vehicle (0.5% CMC-Na solution) or 4o (300, 2000 mg/kg) by gavage once. The body weight, toxicity effect, general behavior and mortality of mice were monitored within 14 days after 4o treatment. In subacute toxicity assay, 10 male and 10 female Kunming mice (Jinan Pengyue Experimental Animal Breeding Co., Ltd., Jinan, China), 18–22 g of weight, were used. The mice were randomly divided into two groups with 5 males and 5 females, and were orally treated with vehicle (0.5% CMC-Na solution) or 4o (1000 mg/kg) once a day for 28 days. […]. After 28 days of treatment, the mice were anaesthetized with isoflurane and killed by decapitation. The heart, liver, spleen and kidney tissues were collected, and histologically analyzed by H&E staining.

Data set [14] deals with HCT116 cells. The experiment in a line: Western blotting of apoptosis-related proteins. Type of data set: cell-based, human. To be noted: HCT116, 4o 2.5, 5 and 10 μM, 24 h, versus DMSO. How it is done: HCT116 cells were harvested, lysed on ice in RIPA buffer (Beyotime Institute of Biotechnology, Shanghai, China) and boiled. Protein concentration was measured by BCA protein assay kit (Beyotime Institute of Biotechnology, Shanghai, China). The protein samples were separated by SDS-PAGE and transferred to the membrane (Pall, New York, NY, USA). Afterwards, the membrane was immunoblotted with the corresponding primary antibody (C-parp (#5625), C-cas9 (#9505), C-cas3 (#9661), Bcl-2 (#4223), Bax (#5023), SHP2 (#3752), P-Erk1/2 (#9101) and Erk1/2 (#9102), 1:1000, Cell Signaling Technology, Danvers, MA, USA; Tubulin (#ET1602-4), 1:5000, HUABIO, Hangzhou, China) and the appropriate HRP-conjugated secondary antibody, and determined with ECL detection reagent (Thermo Scientific, Waltham, MA, USA).
In general terms: A western blot detects proteins with antibodies after separation by electrophoresis.

As a reminder, the IC50 is the concentration that inhibits the measured activity by half. Take `CCOc1ccc(Oc2ccc(C3=NN(C4=NC(=O)CS4)C(c4cc(O)c(O)c(Br)c4Br)C3)cc2)cc1` (stereo not drawn) [Compound 4o, 2-(5-(2,3-dibromo-4,5-dihydroxyphenyl)-3-(4-(4-ethoxyphenoxy)phenyl)-4,5-dihydro-1H-pyrazol-1-yl)thiazol-4(5H)-one]: the IC50 in [1] amounted to 27.1 ± 0.66 µM; in data set [2], 28.3 ± 1.63 µM; in data set [3] it was 10.2 ± 0.39 µM; in data set [4], 3.8 ± 0.22 µM; in [5] it was 5.29 ± 0.6 µM; in [6] it was 6.34 ± 0.37 µM. The half-inhibitory concentration (IC50) was 8.44 ± 0.45 µM in [7]; 7.38 ± 0.31 µM in data set [8]; 7.42 ± 0.43 µM in data set [9]; 5.42 ± 0.44 µM in data set [10]; 6.3 ± 0.5 µM in data set [11]; 2.64 to 10.2 µM in data set [12]. For the same compound, in data set [13] (1000 mg/kg orally once a day), the “Body Weight (g) Day 0” value came to 19.08 ± 0.95 g. In data set [13] (1000 mg/kg orally once a day), the “Body Weight (g) Day 7” value is on record as 27.52 ± 1.77 g. Besides, the “Body Weight (g) Day 14” value in data set [13] (1000 mg/kg orally once a day) amounted to 33.41 ± 3.49 g. In [13] (1000 mg/kg orally once a day), the “Body Weight (g) Day 21” value turned out to be 35.49 ± 4.52 g. Moreover, in data set [13] (1000 mg/kg orally once a day), the “Body Weight (g) Day 28” value was 36.63 ± 4.84 g. For the same compound, the Mortality in data set [13] (1000 mg/kg orally once a day, 28 days) is recorded as 0/10. Also, the “H&E staining of heart, liver, spleen and kidney” value in data set [13] (1000 mg/kg orally, 28 days) is reported as “no significant change in the cell morphology”. In [14], the Bax/Bcl-2 ratio entry is “up-regulated”. In addition, in data set [14], the “Levels of cleaved parp, cleaved caspase9 and cleaved caspase3” value is on record as “increased”.
